# Reference: patent publication US4430427A, “Red absorbing combination of alcohol oxidase and an azide compound” (Phillips Petroleum Company, priority 1980, dated 1984)
# Read-outs that look alike come from different tables or passages of the source.
# Legend:
# Pichia alcohol oxidase [1] = target: T1, Pichia alcohol oxidase (Komagataella phaffii, UniProt F2QY27); conditions: crude enzyme saturated with salt crystals; assayed 1-2 minutes later
# T1 sequence (F2QY27 2-663 limits assumed): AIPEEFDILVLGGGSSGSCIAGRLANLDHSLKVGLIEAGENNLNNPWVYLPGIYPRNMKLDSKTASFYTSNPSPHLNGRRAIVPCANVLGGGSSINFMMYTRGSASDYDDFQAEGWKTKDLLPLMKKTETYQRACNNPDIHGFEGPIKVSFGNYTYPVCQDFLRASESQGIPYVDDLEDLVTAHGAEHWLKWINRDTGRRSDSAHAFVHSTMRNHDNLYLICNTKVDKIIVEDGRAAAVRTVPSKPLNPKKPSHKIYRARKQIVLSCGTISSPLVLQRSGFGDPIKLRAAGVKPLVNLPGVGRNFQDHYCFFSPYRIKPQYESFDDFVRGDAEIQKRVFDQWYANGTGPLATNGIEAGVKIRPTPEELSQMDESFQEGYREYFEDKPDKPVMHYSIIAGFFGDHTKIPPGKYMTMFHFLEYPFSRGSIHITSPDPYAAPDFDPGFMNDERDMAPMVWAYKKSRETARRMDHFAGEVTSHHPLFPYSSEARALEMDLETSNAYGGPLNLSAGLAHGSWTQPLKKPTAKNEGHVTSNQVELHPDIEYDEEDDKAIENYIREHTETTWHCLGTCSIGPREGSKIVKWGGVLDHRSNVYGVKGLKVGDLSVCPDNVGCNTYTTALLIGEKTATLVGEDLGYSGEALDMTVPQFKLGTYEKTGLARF
# Protocol: The alcohol oxidase activity for reaction with methanol was determined by the following assay procedure (dye-peroxidase method). A dye-buffer mixture was prepared by mixing 0.1 mL of an o-dianisidine solution (1 weight % o-dianisdine in water) with 12 mL of aerated 0.1 M sodium phosphate buffer (pH 7.5). The assay mixture was prepared with 2.5 mL of the dye-buffer mixture, 50 μL of methanol, 10 μL of a peroxidase solution (1 mg of horse-radish peroxidase-Sigma, Type II), and 25 μL of the alcohol oxidase solution. The assay mixture was maintained at 25° C. in a 4×1×1 cm cuvette and the increase in absorbance by the dye at 460 nm was recorded for 2 to 4 minutes. The enzyme activity was calculated by [formula] wherein 11.5 is a factor based on a standard curve prepared with known aliquots of H2 O2 and ΔA is the change in absorbance during the experimental interval.
# Pichia alcohol oxidase [2] = target: T1, Pichia alcohol oxidase
# Protocol: The samples are allowed to stand at room temperature for 15 minutes. Color and enzyme activity are monitored at that time.
# [3] = target: Hansenula polymorpha alcohol oxidase (Pichia angusta, UniProt P04841); conditions: 1 mL crude Hansenula polymorpha enzyme preparation, a few crystals (one mg)
# Protocol: Fermentation effluent from the aerobic fermentation of Hansenula polymorpha (prepared as described in Example II) was adjusted to pH 7.5 with concentrated ammonium hydroxide. Sample was homogenized and disrupted on a Dyno-Mill Model KDL using a 0.6 L vessel in a continuous operation at 30° C. using belt combination #3 and a flow of 20-30 mL/hr. The beads were lead-free glass beads with a diameter of 0.3-0.5 mm. The resulting homogenate was centrifuged for 20 minutes at 10,000×g to yield a cell-free supernatant.
# One mL of this crude enzyme preparation was mixed with a few crystals (qualitative--one mg) of NaN3 is a test tube.
# alcohol oxidase = alcohol oxidase (Komagataella phaffii, UniProt F2QY27)
# Protocol: 3 mL of purified enzyme containing 3 mg/mL enzyme (crystallized as described in Example I) were placed in a 1-cm quartz cuvette. The solution was scanned from 350-550 nm.
# where [formula] ΔA522 =change in absorbance at 522 nm upon NaN3 addition, and
# ΔA522^max =total change in absorbance at 522 nm upon saturation of enzyme solution with NaN3.
# [4] = target: T2, purified Pichia alcohol oxidase (Komagataella phaffii, UniProt F2QY27); test: biochemical; type: biochemical, Pichia pastoris
# T2 construct: saturated solution of purified Pichia alcohol oxidase; endogenous in cells
# T2 sequence (F2QY27 2-663 limits assumed): T1 sequence (F2QY27 2-663 limits assumed)
# Protocol: A series of solutions were prepared by combining 3.9 mL standard phosphate buffer (pH 7.5) having NaN3 (g/l) as set forth in Table 8, 15 μL saturated solution of purified Pichia alcohol oxidase, and 50 μL methanol solution (% V/V in H2 O). Reaction velocity V (rate of methanol oxidation in the presence of alcohol oxidase) was monitored by a dissolved oxygen probe by following oxygen consumption (oxygen is consumed as alcohol substrate, S, is oxidized in the presence of the enzyme).
# Hansenula polymorpha alcohol oxidase, sequence (P04841 2-664 limits assumed): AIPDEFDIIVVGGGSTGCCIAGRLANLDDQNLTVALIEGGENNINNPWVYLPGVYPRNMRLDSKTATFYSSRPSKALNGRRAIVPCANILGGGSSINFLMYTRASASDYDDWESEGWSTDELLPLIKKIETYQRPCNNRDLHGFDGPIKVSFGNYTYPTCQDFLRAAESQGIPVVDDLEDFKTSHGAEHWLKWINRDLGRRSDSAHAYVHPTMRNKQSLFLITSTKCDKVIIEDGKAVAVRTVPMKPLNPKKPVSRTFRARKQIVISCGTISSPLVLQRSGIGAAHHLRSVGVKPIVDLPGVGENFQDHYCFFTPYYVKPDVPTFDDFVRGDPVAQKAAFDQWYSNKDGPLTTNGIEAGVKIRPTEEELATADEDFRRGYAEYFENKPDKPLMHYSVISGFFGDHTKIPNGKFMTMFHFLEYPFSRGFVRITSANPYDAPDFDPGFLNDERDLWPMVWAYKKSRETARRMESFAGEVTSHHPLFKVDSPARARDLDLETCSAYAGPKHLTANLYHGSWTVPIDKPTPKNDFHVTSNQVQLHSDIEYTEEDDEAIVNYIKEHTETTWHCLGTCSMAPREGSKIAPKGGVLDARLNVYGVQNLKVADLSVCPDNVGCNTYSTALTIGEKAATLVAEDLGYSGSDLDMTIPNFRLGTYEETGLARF
smiles,measurement,setting,value
[Cl-].[K+] [KCl],Relative Enz. Act.,Pichia alcohol oxidase [1],2
O=P([O-])(O)O.[K+] [KH2 PO4],Relative Enz. Act.,Pichia alcohol oxidase [1],0
N#CS [KSCN],EU/mL* at 15 min.,Pichia alcohol oxidase [2],25 EU/mL
[Cl-].[Li+] [LiCl],Relative Enz. Act.,Pichia alcohol oxidase [1],0
[Cl-].[Cl-].[Mg+2] [MgCl2],Relative Enz. Act.,Pichia alcohol oxidase [1],0
O=P([O-])([O-])O.[Na+].[Na+] [Na2 HPO4],Relative Enz. Act.,Pichia alcohol oxidase [1],4
CC(=O)O [NaAc],Relative Enz. Act.,Pichia alcohol oxidase [1],4
[Cl-].[Na+] [NaCl],Relative Enz. Act.,Pichia alcohol oxidase [1],1
O=P([O-])(O)O.[Na+] [NaH2 PO4],Relative Enz. Act.,Pichia alcohol oxidase [1],0
"[N-]=[N+]=[N-].[Na+] [NaN3, sodium azide]",Color on mixing with crude enzyme preparation,[3],Red color forms upon mixing
same,Color at 15 min.,"Pichia alcohol oxidase [2]; a few crystals (about 1 mg) added to 1 mL purified enzyme solution, room temperature",Red immediately
same,EU/mL* at 15 min.,"Pichia alcohol oxidase [2]; a few crystals (about 1 mg) added to 1 mL purified enzyme solution, room temperature, 15 min",75 EU/mL
same,"fractional saturation, .PHI.",alcohol oxidase; Excess (solid crystals) NaN3,1.000
same,"fractional saturation, .PHI.",alcohol oxidase; Moles N3^-/Moles Enzyme 1.15,.167
same,"fractional saturation, .PHI.",alcohol oxidase; Moles N3^-/Moles Enzyme 1.54,.207
same,"fractional saturation, .PHI.",alcohol oxidase; Moles N3^-/Moles Enzyme 1.92,.259
same,"fractional saturation, .PHI.",alcohol oxidase; Moles N3^-/Moles Enzyme 2.31,.309
same,"fractional saturation, .PHI.",alcohol oxidase; Moles N3^-/Moles Enzyme 3.02,.407
same,"fractional saturation, .PHI.",alcohol oxidase; Moles N3^-/Moles Enzyme 3.85,.475
same,"fractional saturation, .PHI.",alcohol oxidase; Moles N3^-/Moles Enzyme 4.61,.525
same,"fractional saturation, .PHI.",alcohol oxidase; Moles N3^-/Moles Enzyme 5.38,.580
same,"fractional saturation, .PHI.",alcohol oxidase; Moles N3^-/Moles Enzyme 6.25,.630
same,"fractional saturation, .PHI.",alcohol oxidase; Moles N3^-/Moles Enzyme 6.92,.679
same,"fractional saturation, .PHI.",alcohol oxidase; Moles N3^-/Moles Enzyme .38,.062
same,"fractional saturation, .PHI.",alcohol oxidase; Moles N3^-/Moles Enzyme .77,.105
same,number of azide binding sites (extrapolation of the stoichiometric line to the baseline),alcohol oxidase; plot of .PHI. vs ligand/enzyme mole ratio,7.6 moles of azide per mole of enzyme
same,1/V,"[4]; NaN3 .0001 g/l, MeOH .004 M",.0488
same,1/V,"[4]; NaN3 .0001 g/l, MeOH .016 M",.04
same,1/V,"[4]; NaN3 .0002 g/l, MeOH .0005 M",.2632
same,1/V,"[4]; NaN3 .0002 g/l, MeOH .001 M",.1429
same,1/V,"[4]; NaN3 .0002 g/l, MeOH .002 M",.0725
same,1/V,"[4]; NaN3 .0002 g/l, MeOH .004 M",.0588
same,1/V,"[4]; NaN3 .0002 g/l, MeOH .008 M",.0455
same,1/V,"[4]; NaN3 .0002 g/l, MeOH .016 M",.0377
same,1/V,"[4]; NaN3 .0005 g/l, MeOH .0005 M",.625
same,1/V,"[4]; NaN3 .0005 g/l, MeOH .001 M",.4
same,1/V,"[4]; NaN3 .0005 g/l, MeOH .002 M",.1667
same,1/V,"[4]; NaN3 .0005 g/l, MeOH .004 M",.1111
same,1/V,"[4]; NaN3 .0005 g/l, MeOH .008 M",.0813
same,1/V,"[4]; NaN3 .0005 g/l, MeOH .016 M",.0602
same,1/V,"[4]; NaN3 .001 g/l, MeOH .001 M",1
same,1/V,"[4]; NaN3 .001 g/l, MeOH .002 M",.333
same,1/V,"[4]; NaN3 .001 g/l, MeOH .004 M",.1667
same,1/V,"[4]; NaN3 .001 g/l, MeOH .008 M",.111
same,1/V,"[4]; NaN3 .001 g/l, MeOH .016 M",.0645
same,Ki,"[4]; estimated from 1/V vs 1/[S] plots, pH 7.5, read-out: binding constant for NaN3 inhibitor, Ki",6 µM
same,type of inhibition,[4]; from 1/V vs 1/[S] plots,"linear, mixed-type inhibition"
CO [methanol],Kd,"[4]; estimated from 1/V vs 1/[S] plots, pH 7.5, read-out: binding constant for methanol substrate, KS",600 µM
